From US9611281B2, “BODIPY derivatives and methods of synthesis and use thereof” (The Board of Regents of the University of Oklahoma, priority 2013, dated 2017)

Experiments:
colon-26 tumors = experiment: In vivo SBDPiR715-mediated PDT
Method: PS: To obtain an injection solution of SBDPiR715, the emulsifier Tween 80 was used. Tween 80 is a nonionic surfactant, frequently used in vivo as a solubilizing agent for highly lipophilic therapeutics. The formulation procedure required dissolving the PS in a minimal amount of Tween 80 (100 μl). The paste was allowed to stand overnight. 5% Dextrose in phosphate-buffered saline (PBS) solution was added, and the solution was sonicated for 1 hour. The resulting green solution was filtered through a 0.2 μm membrane filter. To ensure the accuracy of the concentration, which might vary due to partial solubility of the PS, the exact concentration was confirmed by UV-visible spectral analysis of the solutions prior to dosing.
Cells and Animal Models: Colon-26 mouse carcinoma cells were obtained from the American Type Culture Collection (ATCC) and cultured in minimum essential medium supplemented with 10% (v/v) fetal calf serum (FCS), 50 U ml^−1 penicillin, 50 μg ml^−1 streptomycin, and 1% (v/v) L-glutamine. The cells were maintained in 5% CO2 (v/v) and 21% O2 (v/v) at 37° C. All animal experiments were approved by IACUC of the University of Oklahoma Health Sciences Center. Female BALB/c mice were received from Charles River at 6-8 weeks old. Balb/c mice were shaved on the upper back and depilated with Nair (Carter-Wallace Inc., New York, N.Y., USA). Mice were anesthetized with an i.p. injection of ketamine/xylazine cocktail (90 mg kg^−1 ketamine and 10 mg kg xylazine). One million colon-26 cells were injected subcutaneously in one dorsal neck area suspended in […] PBS. Tumors grew predictably in all the mice and reached a size of 4- to 6-mm diameter in 5-7 days, or 8-11 mm in 14-16 days after injection, at which time they were used for PDT.
SBDPiR715 in 1% Tween 80-5% Dextrose solvent was injected i.p. at a dose of 3 μmol/kg (2.2 mg/kg) and 5 μmol/kg (3.7 mg/kg) in 0.2 ml solution. Tumors were irradiated 6 hours, 24 hours, or 32 hours after the injection using a Lumacare LC-122M with a fiber-optic light delivery system (Lumacare, Newport Beach, Calif., USA) emitting light at 700 nm (±40 nm). […] No evident temperature increase was detected at the site of irradiation. Mice were anesthetized as described above, and the tumor-bearing limb was positioned under the spot. Total dose of 200-300 mW/cm^2 was delivered for 30 minutes (360-540 J cm^−2). Mice bearing colon-26 tumors were also irradiated without having received injection of SBDPiR715. Another group of animals was treated with SBDPiR715 i.p. without irradiation. After irradiation, mice were allowed to recover in an animal cotton blanket until they resumed normal activity. A positive tumor response was ascribed to tumors that appeared flat blackened or reddened scarp and necrotic tissue within a few days after PDT. Animals were considered cured after complete tumor regression and the absence of a palpable tumor.

[1] = Drug biodistribution of SBDPiR715; format: in vivo, Balb/c mice; details: 5 μmol/kg i.p., 24 hours postinjection
Method: Mice were injected via i.p. with SBDPiR715 (5 μmol/kg/3.7 mg/kg). After 24 hours postinjection, the mice (n=3) were euthanized by CO2 inhalation. Tissues were excised from major organs and tumor. Collected tissues were rinsed with PBS and blotted dry. One hundred milligram of excised tissue was homogenized with CHCl3 (1 ml). The homogenates were centrifuged at 5160 g for 20 minutes, and the supernatant was used for fluorescence measurement (excitation at 710 nm and emission at 754 nm). The amount of compound in each sample was evaluated relative to the standard curve and expressed in “mg/g of tissue” unit.

[2] = Singlet oxygen generation, indirect method of DPBF photooxidation; details: DPBF photooxidation monitored at 410 nm
Method: Singlet oxygen generation and photostability: A singlet oxygen generation experiment on compound 53 using the indirect method of DPBF photooxidation was performed. There were strong similarities of the behavior of 53 towards DPBF with SBDPiR715. […] The photooxidation of DPBF was monitored by UV-vis spectrophotometer at 410 nm. […] Additionally, less than 30% of 53 photobleached under the harsh light illumination condition over a period of an hour, which is a strong evidence for photostability (FIG. 21).

[3] = Optical properties (absorption, emission, extinction coefficient) of BDP635 and derivative SBDPiRs; format: physicochemical
colon cancer tumors = experiment: H&E histology of tumors after SBDPiR690 PDT; format: in vivo, Balb/c mice; details: 1 day post treatment
Text: To access the effect of SBDPiR690 on the tumor regions, tumor samples were collected from SBDPiR690 treated and control mice 1 day post treatment. The samples were fixed, embedded, sectioned, and stained using hematoxylin and eosin.

[4] = Real time whole body imaging of SBDPiR690 clearance and biodistribution; set-up: species or system mice; details: mouse, in vivo
Method: The inherent fluorescent properties of SBDPiR690 enabled its use in real time whole body imaging to evaluate the clearance and biodistribution of the drug in organs, making it an applicable theranostic agent. The drug clears from organs and tissue by 24 hours, reducing the occurrence of skin photo-toxicity, which is a major problem among photosensitizers. […] These findings show the effectiveness of SBDPiR690 as a photosensitizer for use in PDT in clinical setting.

colon-26 tumor model = experiment: In vivo PDT response following SBDPiR690 treatment; set-up: species or system Balb/c mice
Method: 25 animals were divided into 4 groups: control, dark control (SBDPiR690 only), light control (light only), and SBDPiR690-with light exposure (PDT). SBDPiR690 was intravenously injected into mice with colon-26 tumor model, followed by light illumination after 15 minutes postinjection using a light dose of 100 mW/cm^2 (FIGS. 28-29). Mice body weight and tumor response at high light doses (˜500 J cm^−2) were used for initial toxicity profiles.

SMILES | extent of necrosis (colon-26 tumors; 6 and 24 hour drug-light interval) | extent of necrosis (colon-26 tumors; 32 hour drug-light interval) | tumor healing time (colon-26 tumors; after PDT, with remodeling of damaged tissue) [days] | tumor response to PDT (colon-26 tumors; all treatment groups (6, 24, 32 h drug-light interval), monitored for 90 days) | weight loss / visual signs of toxicity (colon-26 tumors; treatment dose 5 μmol/kg (3.7 mg/kg) i.p.) | onset of tumor necrosis after PDT (colon-26 tumors; treatment groups) | organ biodistribution [1] | singlet oxygen generation [2] | ε [3] | λabs [3] [nm] | λflu [3] [nm] | tissue morphology (H&E) (colon cancer tumors) | clearance from organs and tissue [4] [h] | palpable tumor (colon-26 tumor model; 60 days post-treatment) | tumor volume (colon-26 tumor model; SBDPiR690-induced PDT) | tumor necrosis (colon-26 tumor model; after 24-72 h, light fluence 150 J cm^−2) | survival (colon-26 tumor model; after 60 days, SBDPiR690-induced PDT) [%] | oedema and inflammation (colon-26 tumor model; after PDT) | body weight (colon-26 tumor model; high light doses (~500 J cm^−2))
COc1ccc(-c2sc3c(c2Br)=[N+]2C(=C(C(F)(F)F)c4cc5sc(-c6ccc(OC)cc6)c(Br)c5n4[B-]2(F)F)C=3)cc1 [SBDPiR715] | necrosis spread to neighboring skin regions | confinement of necrosis to the tumor region | ~30 | complete tumor ablation | No weight loss or other visual signs of toxicity | mass necrosis and eschar within a day | a higher accumulation of SBDPiR715 was observed in the liver and spleen | effective singlet oxygen generation | – | – | – | – | – | – | – | – | – | – | –
F[B-]1(F)n2c(cc3sc(-c4ccccc4)cc32)C(C(F)(F)F)=C2C=c3sc(-c4ccccc4)cc3=[N+]21 [SBDPiR690, 2,8-Di(phenyl)-1-trifluoromethyl-dithieno[2,3-b]-[3,2-g]-5,5-difluoro-5-bora-3a,4a-diaza-s-indacene] | – | – | – | – | – | – | – | – | 120 000 M^−1 cm^−1 | 688 | 700 | necrosis associated with the treated mice | ≤ 24 | no palpable tumor observed | elimination of tumors | Mass necrosis localized at the tumor region | 100 | oedema and inflammation was observable after 24 hours, but healed after a few days | fairly constant
